tested on: DLD-1 human colon adenocarcinoma cells; test: In vivo anti-tumor study, unstaged model; design: species or system Nude mice; conditions: 10 mpk orally every 12 hours for 31 days, dosing from day 4
Method: Unstaged Model. In this model, the therapy was started immediately after the tumor cells had been inoculated. Nude mice (5-6 week old females) were inoculated with 5×10^6 DLD-1 human colon adenocarcinoma cells on day 1, and randomized on day 3. The dosing of these mice was started on day 4. Groups 1 to 4, having 10 mice in each group, were dosed orally every 12 hours with vehicle,
[drawing 33] 50 mpk, respectively, for 31 days. All animals were carefully monitored at least daily and each tumor was measured twice a week. The tumor growth inhibition level observed is set forth below in Table 3.

| Compound | % inhibition (tumor growth), unstaged model [%] |
| --- | --- |
| CN(C)CCCNc1nc(CN2CCN(C(c3ccc(Cl)cc3)c3ccc(Cl)cc3)CC2)nc2ccccc12 [drawing 34] | 48.30 |

same assay, conditions: 30 mpk orally every 12 hours for 31 days, dosing from day 4

| Compound | % inhibition (tumor growth), unstaged model [%] |
| --- | --- |
| CN(C)CCCNc1nc(CN2CCN(C(c3ccc(Cl)cc3)c3ccc(Cl)cc3)CC2)nc2ccccc12 [drawing 34] | 43.23 |

same assay, conditions: 50 mpk orally every 12 hours for 31 days, dosing from day 4

| Compound | % inhibition (tumor growth), unstaged model [%] |
| --- | --- |
| CN(C)CCCNc1nc(CN2CCN(C(c3ccc(Cl)cc3)c3ccc(Cl)cc3)CC2)nc2ccccc12 [drawing 34] | 78.96 |

tested on: DLD-1 human colon adenocarcinoma cells; test: In vivo anti-tumor study, staged model; design: species or system Nude mice; conditions: 10 mpk orally every 12 hours for 26 days, dosing from day 10
Method: Staged Model. In this model the initiation of therapy was delayed until the tumors had reached a certain volume. Nude mice (5-6 week old females) were inoculated with 5×10^6 DLD-1 human colon adenocarcinoma cells on day 1, and then randomized on day 10. The dosing of these mice was started on day 10. Groups 1 to 5, having 10 mice in each group, were dosed orally every 12 hours with no treatment, vehicle,
[drawing 36] 50 mpk, respectively, for 26 days. All animals were carefully monitored at least daily and each tumor was measured twice a week. The tumor growth inhibition level observed is set forth below in Table 4.

| Compound | % inhibition (tumor growth), staged model [%] |
| --- | --- |
| CN(C)CCCNc1nc(CN2CCN(C(c3ccc(Cl)cc3)c3ccc(Cl)cc3)CC2)nc2ccccc12 [drawing 37] | 10.15 |

same assay, conditions: 30 mpk orally every 12 hours for 26 days, dosing from day 10

| Compound | % inhibition (tumor growth), staged model [%] |
| --- | --- |
| CN(C)CCCNc1nc(CN2CCN(C(c3ccc(Cl)cc3)c3ccc(Cl)cc3)CC2)nc2ccccc12 [drawing 37] | 14.73 |

same assay, conditions: 50 mpk orally every 12 hours for 26 days, dosing from day 10

| Compound | % inhibition (tumor growth), staged model [%] |
| --- | --- |
| CN(C)CCCNc1nc(CN2CCN(C(c3ccc(Cl)cc3)c3ccc(Cl)cc3)CC2)nc2ccccc12 [drawing 37] | 44.31 |

tested on: GST-p53 DNA binding domain (aa 92-aa 312); test: Scintillation Proximity Assay (displacement of 3H-labeled p53 binder); conditions: percentage of 3H-labeled ligand remaining bound, number in brackets = average of n
Method: [drawing 38] (^3H at C bearing the chlorophenyl groups and the piperazinyl group), a radiolabeled small molecule which binds to p53, and the GST-p53 DNA binding domain (aa 92-aa 312), a quantitative screening assay was used to determine if various molecules comprise p53 binding activity. The assay is based on Scintillation Proximity Assay (SPA) technology. The complex of GST-p53,
[drawing 39] and Glutathione-SPA beads (Amersham Biosciences) were incubated with mixing for 1 hour at room temperature in the presence of the compounds to be screened. The signal was read on a Microbeta.
The numerical values expressed refer to the percentage of labeled
[drawing 40] remaining bound to the mutant p53 protein after exposure to the indicated compound.

| SPA ASSAY % Residual T @ 2 ug/mL of drug (Average of) | Compound |
| --- | --- |
| 52.7% | COC(=O)[C@@H](Nc1nc(CNC(=O)Nc2ccccc2-c2ccccc2)nc2ccccc12)C(C)C [Formula 57] |
| 70.0% | OC1CCN(c2nc(CN3CCN(C(c4ccc(Cl)cc4)c4ccc(Cl)cc4)CC3)nc3ccccc23)C1 (stereo not drawn) [Formula 42] |
| 36.8% | CN(Cc1ccccc1)Cc1nc2ccccc2c(=O)[nH]1 [Formula 34] |
| 55.1% | CN(C)CCCNc1nc(CN(C)Cc2ccc(Cl)cc2)nc2ccccc12 [Formula 74] |
| 16.1% | CN(C)CCCNc1nc(CN2CCN(C(c3ccc(Cl)cc3)c3ccc(Cl)cc3)CC2)nc2ccccc12 [Formula 8] |
| 72.5% | CC(C)COC(=O)[C@H](CCCN(C)C)Nc1nc(CN2CCN(C(c3ccc(Cl)cc3)c3ccc(Cl)cc3)CC2)nc2ccccc12 [Formula 117] |
| 44.4% | COc1ccc(CN(C)Cc2nc(NCCCN(C)C)c3ccccc3n2)cc1 [Formula 73] |
| 42.6% | CNCc1nc(NCCCN(C)C)c2ccccc2n1 [Formula 36] |
| 64.1% | CN(C)CCCNc1nc(CN(C)Cc2cccc(F)c2)nc2ccccc12 [Formula 67] |
| 52.8% | CN(C)CCCNc1nc(CN(C)C2CCC(C(F)(F)F)CC2)nc2ccccc12 (stereo not drawn) [Formula 106] |
| 44.9% | COC(=O)[C@@H](Nc1nc(CNC(=O)Nc2cccc(Br)c2)nc2ccccc12)C(C)C [Formula 58] |
| 54.1% | CN(C)CCCNc1nc(CN(C)Cc2ccc(C#N)cc2)nc2ccccc12 [Formula 70] |
| 69.7% | Cc1cccc(C)c1CN(C)Cc1nc(NCCCN(C)C)c2ccccc2n1 [Formula 72] |
| 65.7% | CCN(CC)C(=O)C1CCCN(c2nc(CN3CCN(C(c4ccc(Cl)cc4)c4ccc(Cl)cc4)CC3)nc3ccccc23)C1 (stereo not drawn) [Formula 49] |
| 48.4 (3) % | CN(C)CCCNc1nc(CN(C)Cc2cccc(C(F)(F)F)c2)nc2ccccc12 [Formula 85] |
| 52.5% | CN(C)CCCNc1nc(CN2CCN(C(=O)Nc3ccc(C#N)cc3)CC2)nc2ccccc12 [Formula 40] |

Second part, the compound before the results:

| Compound | SPA ASSAY % Residual T @ 2 ug/mL of drug (Average of) |
| --- | --- |
| COC(=O)[C@@H](Nc1nc(CNC(=O)Nc2ccc(Cl)c(Cl)c2)nc2ccccc12)C(C)C [Formula 55] | 57.0% |
| CN(C)CCCNc1nc(CN(C)Cc2ccc(-c3ccccc3)cc2)nc2ccccc12 [Formula 90] | 68.1% |
| CN(C)CCCNc1nc(CN(C)C2CCC3CCCCC3C2)nc2ccccc12 (stereo not drawn) [Formula 102] | 28.7(3) % |
| CN(C)CCCNc1nc(CN(C)Cc2ccccc2Sc2ccc(Cl)cc2)nc2ccccc12 [Formula 94] | 53.7% |
| Clc1ccc(C(c2ccc(Cl)cc2)N2CCN(Cc3nc(N4CCN(c5ncccn5)CC4)c4ccccc4n3)CC2)cc1 [Formula 47] | 85.0% |
| CC(C)CCN(C)Cc1nc(NCCCN(C)C)c2ccccc2n1 [Formula 61] | 31.6 (3) % |
| CN(C)CCCNc1nc(CN(C)Cc2ccccc2)nc2ccccc12 [Formula 35] | 22.2% |
| COc1ccc(Cl)cc1NC(=O)N(C)Cc1nc(NCCCN(C)C)c2ccccc2n1 [Formula 112] | 48.4% |
| CN(C)[C@@H]1CCN(c2nc(CN3CCN(C(c4ccc(Cl)cc4)c4ccc(Cl)cc4)CC3)nc3ccccc23)C1 [Formula 50] | 53.0% |
| COC(=O)[C@@H](Nc1nc(CN2CCN(C(=O)Nc3ccc(C(C)C)cc3)CC2)nc2ccccc12)C(C)C [Formula 11] | 39.5% |
| CN(C)CCCNc1nc(CN(C)Cc2ccccc2OCC(=O)O)nc2ccccc12 [Formula 89] | 60.1 (3) % |
| COC(=O)[C@@H](Nc1nc(CNC(=O)Nc2ccccc2C(F)(F)F)nc2ccccc12)C(C)C [Formula 54] | 48.1% |
| CN(C)CCCNc1nc(CN(C)C/C=C/c2ccccc2)nc2ccccc12 [Formula 71] | 68.4% |
| CN(C)CCCNc1nc(CN(C)C2CCCC(C(F)(F)F)C2)nc2ccccc12 (stereo not drawn) [Formula 105] | 57.7% |
| CCC(C)CN(C)Cc1nc(NCCCN(C)C)c2ccccc2n1 (stereo not drawn) [Formula 62] | 50.0 (3) % |
| CN(C)CCCNc1nc(CN(C)Cc2nccs2)nc2ccccc12 [Formula 66] | 37.0 (3) % |

| Compound | SPA ASSAY % Residual T @ 2 ug/mL of drug (Average of) |
| --- | --- |
| Cc1c(CN(C)Cc2nc(NCCCN(C)C)c3ccccc3n2)sc2ccccc12 [Formula 88] | 23.6 (3) % |
| CN(C)CCCNc1nc(CN(C)CC2CCCCC2)nc2ccccc12 [Formula 111] | 57.0% |
| COc1ccc(/C=C/c2nc(NCCCN(C)C)c3ccccc3n2)cc1 [Formula 114] | 61.3% |
| CN(C)CCCNc1nc(CN(Cc2ccccc2)Cc2ccccc2)nc2ccccc12 [Formula 113] | 61.7% |
| CN(C)CCCNc1nc(CN(C)C2CCC(C#N)(c3ccccc3)CC2)nc2ccccc12 (stereo not drawn) [Formula 109] | 5.5 (2) % |
| CN(C)CC[C@H](Nc1nc(CN2CCN(C(c3ccc(Cl)cc3)c3ccc(Cl)cc3)CC2)nc2ccccc12)C(N)=O [Formula 115] | 44.8% |
| Clc1ccc(C(c2ccc(Cl)cc2)N2CCN(Cc3nc(N4CCc5ccccc5C4)c4ccccc4n3)CC2)cc1 [Formula 44] | 83.9% |
| CN(C)CCCNc1nc(CN(C)Cc2cccc3ccccc23)nc2ccccc12 [Formula 82] | 52.9% |
| CN(C)CCCNc1nc(CN2CCN(Cc3cccc4ccccc34)CC2)nc2ccccc12 [Formula 14] | 27.9% |
| CN(C)CCCNc1nc(CN(C)Cc2ccoc2)nc2ccccc12 [Formula 64] | 50.7 (3) % |
| CN(C)CCCNc1nc(CN(C)C2CCN(C(=O)c3ccccc3)CC2)nc2ccccc12 [Formula 110] | 20.7 (2) % |
| COc1ccc(Cl)cc1NC(=O)NCc1nc(N[C@H](C(N)=O)C(C)C)c2ccccc2n1 [Formula 60] | 60.0% |
| CCC(C)(C)C1CCC(N2CCN(Cc3nc(NCCCN(C)C)c4ccccc4n3)CC2)C1 (stereo not drawn) [Formula 38] | 55.7% |
| CN(C)CCCNc1nc(CN(C)Cc2cccc3cc[nH]c23)nc2ccccc12 [Formula 77] | 25.7% |
| CN(C)CCCNc1nc(CN(C)Cc2ccc(Oc3ccccc3)cc2)nc2ccccc12 [Formula 91] | 54.0% |
| CN(C)CCCNc1nc(CN(C)C2CCC3(CC2)OCCO3)nc2ccccc12 [Formula 104] | 23.0 (2) % |

Reference: patent publication US7790474B1, “p53 modulators” (Schering Corporation, priority 2005, dated 2010)
